One may read the Cmax as the peak of the concentration-time curve. Usually Tmax stands for the time at which the peak concentration occurs.

The results in this text go back to paper PMC13168289, “Potent acridone antimalarial against all three life stages of Plasmodium” (Nature Communications, 2026).

The nature of the data set: in vivo pharmacokinetics, single oral dose. Set-up: species or system ICR-CD1 mice. Conditions: 40 mg/kg oral. On the procedure:
PK studies were conducted using well-established methods[21],[31],[50]. Four to five weeks old male and female outbred ICR-CD1 mice (Charles River Laboratories. Inc. Raleigh, NC) weighing 23–35 g were used for PK studies. Animals were assigned unique study numbers via ear tags and cage cards and were randomly assigned to treatment or control groups (n = 3 per group) using a weigh-stratified randomization procedure. All animals were quarantined and acclimatized for 7 days prior to study initiation and were housed in a 12:12 light/dark cycle with food and water provided ad libitum. […] At each time point, a terminal whole blood sample was collected by cardiac puncture using heparinized syringes (Heparin, Hospira, Lake Forest, IL), while mice were under anesthesia in accordance with the approved IACUC protocol. Following the separation of appropriate aliquots, plasma was obtained from the whole blood via centrifugation at 16,200 rpm for 10 min at 4 °C. Mice were humanely euthanized as described in the protocol, after which the liver samples were also collected and weighed at each experimental time point. All tissue samples were immediately preserved on dry ice and later stored at −80 °C until analytical work was performed. Drug concentrations were determined for each sample taken from animals dosed with the test compound. PK parameters such as time to maximum plasma concentration (Tmax), maximum plasma concentration (Cmax), the apparent elimination half-life (t1/2), area under the curve (AUC), etc., were obtained using noncompartmental analysis via the Phoenix WinNonlin software package (version 6.4; Pharsight Corp., Mountain View, CA).

Consider `O=c1c2ccc(Oc3ccc(OC(F)(F)F)cc3)cc2[nH]c2cc(Cl)cc(F)c12` [T111], for which, where the note is “female, liver”, the AUCinf is 23,495 ng.h/mL, the AUClast is 23,384 ng.h/mL, the highest concentration (Cmax) came out at 1503 ng/mL and the time of peak concentration (Tmax) was 8.0 h. Also, for the setting “female, plasma”, the AUCinf was found to be 185 ng·h/mL, the AUClast was 169 ng·h/mL, the Cmax was determined as 11.3 ng/mL and the time of peak concentration (Tmax) is 4.0 h. For the setting “male, liver”, the AUCinf is listed as 26,044 ng.h/mL, the AUClast is on record as 25,969 ng.h/mL, the Cmax is given as 1704 ng/mL and the Tmax turned out to be 1.0 h. Moreover, under “male, plasma”, the AUCinf was determined as 180 ng·h/mL, the AUClast stood at 156 ng·h/mL, the peak concentration (Cmax) was 6.8 ng/mL and the Tmax is recorded as 4.0 h.
